No end group written: not given here.
Key:
ABCA1 = ABCA1 induction by ATRA in BMDMs, real time RT-PCR; assay type: cell-based, mouse; conditions: IRAK1−/− vs WT BMDMs, 50 nM ATRA, 6 h
Procedure: WT and IRAK1^−/− BMDM cells were either untreated or treated with ATRA (50 nM) followed by Western blot analysis of cell extracts using ABCA1 specific antibodies. Antibodies against β-actin were used as the internal loading control. Panel B: the band intensities were quantitated using the Fujifilm Multi Gauge software and the fold induction is depicted after normalization against β-actin levels. Panel C: IRAK-1 expression was knocked-down using IRAK-1 specific siRNA (IRAK1). Wild type macrophages treated with either control siRNA or IRAK-1 specific siRNA were stimulated with 50 nM ATRA for 6 hrs. The levels of ABCA1 protein were determined by Western blot using anti-ABCA1 antibody. The levels of beta-actin were probed and served as equal loading controls. The levels of IRAK-1 were probed to make efficient knock-down with the IRAK-1 specific siRNA treatment. […] The cells were […] either untreated or treated with 50 nM ATRA for 6 h and the expression of ABCA1 and ABCG1 transcripts were measured by real time RT-PCR assays and standardized against GAPDH levels.

RARα = RARα levels in BMDMs after LPS, Western blot and real time RT-PCR; assay type: cell-based, mouse; conditions: for nuclear RARα protein level: 100 ng/ml LPS
Procedure: To determine if IRAK-1 is involved in the nuclear translocation of RARα, the levels of RARα were determined in wild type and IRAK-1 deficient macrophages in the presence and absence of LPS (FIG. 9). […] When experiments are performed in a IRAK-1 deficient background, RARα is not suppressed (lanes 5-8). As expected, when a wild type background is used, IRAK-1 suppression can be seen (lanes 1 and 2).
WT and IRAK-1^−/−. BMDMs were treated with 100 ng/ml LPS for 2 h followed by nuclear protein extraction. The samples were analyzed by immunoblotting using the indicated antibodies. LaminB was used as the loading control. Panel B: the BMDMs derived from WT and IRAK-1^−/− mice were treated with LPS for 2 h followed by RNA extraction. The resulting cDNAs were used to detect RARα transcript levels by real time RT-PCR and standardized against GAPDH levels. Panel C: WT BMDMs were treated with 100 ng/ml LPS for 2 h followed by whole cell protein extraction. The samples were resolved by SDS-PAGE followed by immunoblotting with anti-RARα antibodies. Panel D: BMDM cells derived from WT mice were either untreated or treated with Leptomycin B (LepB) alone or in the presence of LPS. After 2 h incubation, nuclear lysates were prepared and subjected to SDS-PAGE followed by Western blot analysis with RARα specific antibodies. The blots were also probed with LaminB-specific antibodies as a loading control. ns=non-specific.

Tau = Tau phosphorylation (PHF-Tau) after BLP (Pam3CSK4) in bone marrow derived macrophages, Western blot; assay type: cell-based, mouse
Procedure: Because Tau phosphorylation is increased in aged human brains and contributes to the pathogenesis of various neurological diseases, such as Alzheimer's and Parkinson's diseases, studies were performed to ask whether the increased levels of full-length IRAK-1 can contribute to Tau phosphorylation. In order to answer this question, a transgenic mouse model known in the art was used. According to this study, either wild type or IRAK-1 deficient bone marrow derived macrophages were treated with BLP (Pam3CSK4) for various times, as indicated in FIGS. 4 and 5. The levels of phosphorylated Tau (PHF-Tau) were detected through Western Blot using anti-phosphorylated Tau antibody.

BMDM cells = test: Intracellular ROS by DCFDA staining after LPS stimulation; assay type: cell-based, mouse; conditions: wild type macrophages, LPS 100 ng/ml, 15 minutes or 16 hours
Procedure: (§1) To determine if IRAK-1 is required for LPS-induced activation of Rac1, either wild type or IRAK-1 deficient macrophages were treated with LPS (100 ng/ml).
Intracellular ROS levels were measured by DCFDA staining using fluorescence microscope after LPS (100 ng/ml) stimulation in WT and IRAK1^−/− BMDM cells for 15 min.

Rac1 = Rac1 activity by PBD pull down assay after LPS stimulation; assay type: cell-based, mouse; conditions: LPS 100 ng/ml, 5 min
Procedure: as §1
Rac1 activity was determined using the PBD pull down assay following LPS stimulation (100 ng/ml) for 5 min in WT and IRAK1^−/− BMDM cells followed by immunoblotting with an anti-Rac1 antibody. […] The bar graphs are densitometric analyses of the active Rac1 specific bands from three independent experiments.

C/EBPδ = test: LPS-induced C/EBPδ expression, Western blot in macrophages; assay type: cell-based; conditions: LPS two hours
Procedure: To determine if IRAK-1 is involved in LPS-induced C/EBPδ expression, either wild type or IRAK-1 deficient macrophages were treated with LPS for two hours. […] Either β-actin or lamin-B proteins were used as controls.

PPARα = PPARα protein after LPS, Western blot; assay type: cell-based; conditions: IRAK-1 deficient cells, LPS vs Control
Excerpt: It was of interest to determine if the transcription factor PPARα is also regulated by IRAK-1.

LXRα = LXRα protein after LPS, Western blot; assay type: cell-based
Excerpt: The transcriptional factor LXRα was also thought to be a potential target of IRAK-1 suppression. FIG. 14 illustrates Western blot analysis of the LXRα protein in the presence and absence of IRAK-1. Suppression of LXRα can be seen in the wild type cells (lanes 1 and 2).

PGC1α = PGC1α protein after LPS, Western blot; assay type: cell-based; conditions: LPS vs Control
Procedure: The ability of IRAK-1 to regulate the transcription factor PGC1α was determined in this set of experiments. PGC1α was detected by Western blot analysis in either wild type or IRAK-1 deficient cells in the presence or absence of LPS (FIG. 15).

NOX-1 = NOX-1 expression after LPS in BMDM cells; assay type: cell-based, mouse
Procedure: To determine if IRAK-1 was involved in the regulation of inflammatory mediator NOX-1, the levels of NOX-1 were determined in wild type and IRAK-1 deficient macrophages in the presence and absence of LPS (FIG. 16).
Panel A: Effect of LPS on NOX-1 expression in WT and IRAK1^−/− BMDM cells. The cells were stimulated with LPS (100 ng/ml) for 2 h. After stimulation, total RNA was prepared using Trizol reagent followed by reverse transcription and the mRNA levels of NOX-1 were analyzed using real-time RT-PCR. Each data point represents the mean+/−standard deviation of at least three independent experiments. *P<0.05, compared with control. Panel B: The protein levels of NOX-1 were analyzed after LPS stimulation in WT and IRAK1^−/− BMDM cells by Western blot using an anti-NOX-1 antibody. The same blots were probed with β-actin as the loading control. Panel C: Chromatin immunoprecipitation analyses were performed to determine LPS-inducible recruitment of C/EBPδ to the promoter region of NOX-1. In contrast, LPS cannot induce C/EBPδ binding to the promoter region of NOX-1 in IRAK-1 deficient macrophages.

MCP-1 = MCP-1 message and protein after LPS in macrophages, real-time PCR and ELISA; assay type: cell-based; conditions: wild-type cells, LPS stimulation
Procedure: To investigate the possible role of IRAK-1 in control of MCP-1 expression, experiments were performed to assess the level of MCP-1 produced via LPS stimulation. It was postulated that IRAK-1 regulates the expression of MCP-1 through interaction of IRAK-1 with C/EBPδ. To assess this possible interaction, MCP-1 mRNA levels were determined in both wild-type cells and IRAK^−/− cells in the presence and absence of LPS. The results are depicted graphically in FIG. 17.
As shown in the figure, the levels of MCP-1 message (left panel) and protein (right panel) in wild type and IRAK-1 deficient macrophages following LPS stimulation was measured by real-time PCR analyses (left panel) and ELISA (right panel). […] The data fully support a role for IRAK-1 in control of expression of MCP-1 transcription through control of C/EBPδ.

## CC1=C(/C=C/C(C)=C/C=C/C(C)=C/C(=O)O)C(C)(C)CCC1 [ATRA, all trans retinoic acid]
ABCA1
  ABCA1 mRNA induction: higher induction of ABCA1 mRNA

## CCC(=C/[C@H](C)C/C=C/C(C)=C/[C@@H](C)C(=O)[C@@H](C)[C@H](O)[C@@H](C)C/C(C)=C/C(=O)O)/C=C/[C@@H]1OC(=O)C=C[C@@H]1C [LepB, Leptomycin B]
RARα; wild type BMDM, LepB with LPS, 2 h
  LPS-induced suppression of nuclear RARα in the presence of LepB: RARα suppression by IRAK-1 is not seen

## Triacylated Cys-Ser-Lys-Lys-Lys-Lys (CSKKKK; not fully specified (residue 1, N-terminus); printed as Triacylated Cys-Ser-Lys-Lys-Lys-Lys) [Pam3CSK4]
Tau; IRAK-1 deficient bone marrow derived macrophages
  Tau phosphorylation: Tau phosphorylation is ablated
Tau; wild type bone marrow derived macrophages
  Tau phosphorylation: led to increased Tau phosphorylation

## lipopolysaccharide [LPS]
BMDM cells
  reactive oxygen species levels: induced significantly higher levels of reactive oxygen species
Rac1; IRAK-1 deficient macrophages
  activation of Rac1: No induction was seen
Rac1; wild type macrophages
  relative Rac1 activity: significantly higher
C/EBPδ; IRAK-1 deficient macrophages
  C/EBPδ expression: no induction
C/EBPδ; wild type macrophages
  C/EBPδ expression: induction
RARα; IRAK-1 deficient BMDMs, 2 h
  nuclear RARα protein level: no significant suppression
RARα; wild type BMDMs, 2 h
  nuclear RARα protein level: suppression of RARα protein
RARα; wild type and IRAK-1 deficient BMDMs, LPS 2 h, standardized against GAPDH
  RARα relative transcript levels: approximately equal
PPARα
  PPARα protein: PPARα was seen in both the Control and LPS samples
LXRα; IRAK-1 deficient cells
  amount of LXRα in the presence or absence of LPS: approximately the same
LXRα; wild type cells
  amount of LXRα without LPS induction relative to LPS-induced cells: four times
PGC1α; IRAK-1 deficient cells
  PGC1α protein: did not show the LPS-induced suppression
PGC1α; wild type cells
  PGC1α protein: much less of the PGC1α protein
NOX-1; IRAK-1 deficient cells
  NOX-1 protein: Induction was seen to a lesser extent
NOX-1; wild type macrophage cells
  NOX-1 protein: LPS-induction of NOX-1
MCP-1
  MCP-1 transcription and protein expression: significant increase in induction of MCP-1 transcription and protein expression

From patent US20100189695A1, “IRAK-1 AS REGULATOR OF DISEASES AND DISORDERS” (priority 2008, published 2010)
